Measured values taken from patent publication US9260382B2, “Methods of reducing virulence in bacteria” (priority 2010, dated 2016).

How the values were obtained:
hrpA promoter (T3SS) = experiment: GFP reporter plasmid phrpA, flow cytometry (FACS) of hrpA promoter activity; type: cell-based, Dickeya dadantii 3937; details: for GFP Mean Fluorescence Intensity, hrpA promoter: MM + 0.1 mM compound; for change of average GFP fluorescence intensity of Ech3937 (phrpA) vs MM alone, in words: 0.1 mM
In short: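 D. dadantii (Ech) 3937 carrying the phrpA promoter–GFP transcriptional fusion was grown in T3SS minimal medium with 100 μM compound, starting from an inoculum of OD600 1.0. GFP was read by flow cytometry at 12 and 24 h. Values are mean fluorescence intensity of three replicates ± SD, with compound-free MM as control.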

dspE mRNA = experiment: qRT-PCR relative mRNA level of dspE; type: cell-based, Dickeya dadantii 3937; details: 0.1 mM in MM
Description: (§1) Bacterial strains were grown in MM. Total RNA from the bacterial cells was isolated by using the TRI reagent method (Sigma, Mo.) and treated with Turbo DNA-free DNase kits (Ambion, Tex.) as described (Peng et al., 2006). An iScript cDNA Synthesis Kit (Bio-Rad, CA) was used to synthesize cDNA from 0.5 μg of treated total RNA. The Real Master Mix (Eppendorf, Westbury, N.Y.) was used for qRT-PCR reaction to quantify the cDNA level of target genes in different samples. The rplU was used as the endogenous control for data analysis. qRT-PCR data were analyzed using Relative Expression Software Tool as described (Pfaffl, M. W., Horgan, G. W., and Dempfle, L. (2002) Relative expression software tool (REST) for group-wise comparison and statistical analysis of relative expression results in real-time PCR. Nucleic Acids Res 30:e36.).

hrpA mRNA = experiment: qRT-PCR relative mRNA level of hrpA; type: cell-based, Dickeya dadantii 3937; details: 0.1 mM in MM
Description: as §1

exoS promoter (T3SS) = experiment: exoS promoter-gfp reporter pATexoS, flow cytometry; type: cell-based, P. aeruginosa PA01; details: for Actual readings of flow cytometry (exoS expression): 6 h, LB with 200 mM NaCl, 10 mM NTA; for Fraction of untreated control (exoS expression): structure-activity table, concentration not given
Description: To identify T3SS inhibitors of PA01, a promoter-probe vector pPROBE-AT containing the promoterless green fluorescent protein (gfp) gene was used to construct an exoS promoter-gfp plasmid reporter, pATexoS. PA01 containing pATexoS was cultured in T3SS-inducing medium containing dimethyl sulfoxide (DMSO; solvent of chemical compounds), or supplemented with 250 μM of each compound, and promoter activity was assessed at 6 h by measuring GFP intensity using flow cytometry. 101 compounds (58 synthesized and 43 commercially available) were screened. Compounds 027, 032, 101, and 149 repressed exoS expression at the final concentration of 250 μM by at least one standard deviation below the sample average (Z score≦−1) (FIG. 37 A-E). Z score (or standard score) indicates how many standard deviations an observation or datum is above or below the mean [z=(x−μ)/σ, where x is a raw score to be standardized, μ is the mean of the population, and σ is the standard deviation of the population].
To determine the effective concentration of compounds, the dose-dependent effect of potential inhibitors on exoS expression and bacterial growth were tested. P. aeruginosa cells carrying pATexoS were pre-cultured in LB supplemented with 200 mM NaCl and transferred to fresh LB with 200 mM NaCl, 10 mM NTA, and various concentrations of compounds (20, 50, 100, and 250 μM) or DMSO for 6 h. […] At 50 μM dosage, both 027 and 101 inhibited exoS expression at similar levels, and this inhibitory effect increased as compound concentration increased (FIG. 38A and Table 17). […] These inhibitions/inductions of exoS expression are caused by the shifting bacterial population between low-state expression cells and high-state expression cells (FIG. 40).

[1] = Trial 1, MM supplemented with compound at 100 μM
[2] = hrpL mutant WPP96 (phrpA), 12 h

## O=C(O)/C=C/c1ccc(O)cc1 [Compound 004, para-coumaric acid]
hrpA promoter (T3SS); 10 μM added to T3SS-inducing minimal medium (MM)
  inhibitory effect on hrpA at 10 μM, in words: No inhibitory effect
hrpA promoter (T3SS); Ech3937 (phrpA), 12 h, listed as PCA
  GFP Mean Fluorescence Intensity, hrpA promoter: 9.2 ± 0.4
hrpA promoter (T3SS); [1]
  Mean Fluorescence Intensity of GFP (hrpA, phrpA): 9.4 ± 0.1
hrpA promoter (T3SS); Trial 2, MM supplemented with compound at 100 μM
  Mean Fluorescence Intensity of GFP (hrpA, phrpA): 9.3 ± 0.2
hrpA promoter (T3SS); concentrations at 0.001, 0.005 and 0.01
  effect on GFP fluorescence intensity of Ech3937 (phrpA), in words: did not result in substantial reduction of GFP fluorescence intensity
hrpA promoter (T3SS); [2]
  GFP Mean Fluorescence Intensity, hrpA promoter: 7.3 ± 0.1
hrpA promoter (T3SS); hrpL mutant WPP96 (phrpA), 24 h
  GFP Mean Fluorescence Intensity, hrpA promoter: 9.0 ± 1.6
hrpA promoter (T3SS); hrpS mutant WPP90 (phrpA), 12 h
  GFP Mean Fluorescence Intensity, hrpA promoter: 7.9 ± 0.2
hrpA promoter (T3SS); hrpS mutant WPP90 (phrpA), 24 h
  GFP Mean Fluorescence Intensity, hrpA promoter: 9.3 ± 0.2
hrpA promoter (T3SS); hrpX mutant WPP67 (phrpA), 12 h
  GFP Mean Fluorescence Intensity, hrpA promoter: 7.9 ± 0.2
hrpA promoter (T3SS); hrpX mutant WPP67 (phrpA), 24 h
  GFP Mean Fluorescence Intensity, hrpA promoter: 9.0 ± 1.3
hrpA promoter (T3SS); hrpY mutant WPP92 (phrpA), 12 h
  GFP Mean Fluorescence Intensity, hrpA promoter: 6.9 ± 0.1
hrpA promoter (T3SS); hrpY mutant WPP92 (phrpA), 24 h
  GFP Mean Fluorescence Intensity, hrpA promoter: 9.4 ± 0.7
dspE mRNA
  dspE mRNA compared with MM alone, in words: significantly lower amount of mRNA
hrpA mRNA
  hrpA mRNA compared with MM alone, in words: significantly lower amount of mRNA
exoS promoter (T3SS); 20 uM
  Actual readings of flow cytometry (exoS expression): 119.08 ± 1.82
exoS promoter (T3SS); 50 uM
  Actual readings of flow cytometry (exoS expression): 127.05 ± 4.43
exoS promoter (T3SS); 100 uM
  Actual readings of flow cytometry (exoS expression): 118.16 ± 2.73
exoS promoter (T3SS); 250 uM
  Actual readings of flow cytometry (exoS expression): 117.74 ± 5.09
exoS promoter (T3SS); screening for T3SS inhibitors
  effect on exoS promoter activity, in words: little or no effect on exoS promoter activity
exoS promoter (T3SS)
  Fraction of untreated control (exoS expression): 0.94 ± 0.05

## O=C(O)/C=C/c1ccccc1 [Compound 001, trans-cinnamic acid]
hrpA promoter (T3SS); 12 h
  change of average GFP fluorescence intensity of Ech3937 (phrpA) vs MM alone, in words: doubled
hrpA promoter (T3SS); Ech3937 (phrpA), 6 h
  GFP Mean Fluorescence Intensity, hrpA promoter: 22.3 ± 2.1
hrpA promoter (T3SS); Ech3937 (phrpA), 24 h
  GFP Mean Fluorescence Intensity, hrpA promoter: 203.7 ± 16.1
hrpA promoter (T3SS); [2]
  GFP Mean Fluorescence Intensity, hrpA promoter: 6.2 ± 0.6

## O=C(O)/C=C/c1ccccc1O [Compound 006, Ortho-coumaric acid]
hrpA promoter (T3SS); 12 h
  change of average GFP fluorescence intensity of Ech3937 (phrpA) vs MM alone, in words: doubled
hrpA promoter (T3SS); Ech3937 (phrpA), 12 h, listed as OCA
  GFP Mean Fluorescence Intensity, hrpA promoter: 82 ± 1
hrpA promoter (T3SS); Ech-Rif (phrpA), 6 h
  GFP Mean Fluorescence Intensity, hrpA promoter: 18 ± 0
hrpA promoter (T3SS); Ech-Rif (phrpA), 12 h
  GFP Mean Fluorescence Intensity, hrpA promoter: 51 ± 2
hrpA promoter (T3SS); Ech-Rif (phrpA), 24 h
  GFP Mean Fluorescence Intensity, hrpA promoter: 49 ± 1
hrpA promoter (T3SS); gacA mutant Ech137 (phrpA), 6 h
  GFP Mean Fluorescence Intensity, hrpA promoter: 4.9 ± 0.1
hrpA promoter (T3SS); gacA mutant Ech137 (phrpA), 12 h
  GFP Mean Fluorescence Intensity, hrpA promoter: 5.9 ± 0.1
hrpA promoter (T3SS); gacA mutant Ech137 (phrpA), 24 h
  GFP Mean Fluorescence Intensity, hrpA promoter: 8.3 ± 0
hrpA promoter (T3SS); [2]
  GFP Mean Fluorescence Intensity, hrpA promoter: 6.5 ± 0.2
dspE mRNA
  dspE mRNA compared with MM alone, in words: significantly higher amount
hrpA mRNA
  hrpA mRNA compared with MM alone, in words: significantly higher amount

## O=C(/C=C/c1ccc(O)cc1)NO [Compound 103, trans-4-Hydroxycinnamohydroxamic acid]
hrpA promoter (T3SS); 10 μM added to the medium
  reduction of hrpA expression: approximately 4 fold
hrpA promoter (T3SS); D. dadantii 3937, reporter plasmid phrpA, 100 μM
  inhibitory activity on T3SS gene (hrpA) expression, in words: showed inhibitory effect
hrpA promoter (T3SS); Dickeya dadantii, read-out: minimal inhibitory concentration on hrpA expression (concentration showing inhibitory effect)
  minimal effective concentration: 10 µM
hrpA promoter (T3SS); [1]
  Mean Fluorescence Intensity of GFP (hrpA, phrpA): 9.3 ± 0.3
exoS promoter (T3SS); 20 uM
  Actual readings of flow cytometry (exoS expression): 179.07 ± 2.98
exoS promoter (T3SS); 50 uM
  Actual readings of flow cytometry (exoS expression): 237.31 ± 4.94
exoS promoter (T3SS); 100 uM
  Actual readings of flow cytometry (exoS expression): 279.16 ± 2.72
exoS promoter (T3SS); 250 uM
  Actual readings of flow cytometry (exoS expression): 328.30 ± 3.24
exoS promoter (T3SS)
  Fraction of untreated control (exoS expression): 2.04 ± 0.13
